Source: patent publication US6706663B2, “Herbicidal 3-heterocyclic substituted benzisothiazole and benzisoxazole compounds” (Wyeth, priority 2000, dated 2004)

What was measured:
[1] = system: ECHORC (Echinochloa oryzoides); assay: Flooded paddy, postemergence weed control; format: in vivo, Echinochloa oryzoides (Ard.) Fritsch.; details: postemergence weeds, rated 3-4 weeks after treatment
How it was run: (§1)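 Flood water 1.5-3 cm deep throughout; test compound dosed into it as 50/50 v/v aqueous/acetone, ~0.0320-0.2500 kg/ha ai. Plants: weeds 3-5 cm tall, rice seedlings 1.5-2.5 leaf. Read-out 3-4 wk later, visual 0-9 vs control.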

ORYSAT (Rice, Tebonnet) [2] = assay: Flooded paddy, post-transplant and postemergence rice tolerance; format: in vivo, Oryza sativa, (L.) Tebonnet; details: post-transplant rice, rated 3-4 weeks after treatment
How it was run: as §1

[3] = system: ABUTH (Abutilon theophrasti); assay: Postemergence herbicidal evaluation; format: in vivo, Medic.
How it was run: (§2)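 Seedlings grown about two weeks in flats, sprayed, then kept under standard greenhouse care. Rated visually 4–5 weeks after treatment on a 0–9 scale (stand, vigour, malformation, size, chlorosis, overall appearance) relative to untreated control; repeat tests averaged.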

ZEAMX (Corn, Field) = assay: Postemergence herbicidal evaluation; format: in vivo, Zea mays, L.
How it was run: as §2

[4] = system: AMBEL (Ambrosia artemisifolia); assay: Postemergence herbicidal evaluation; format: in vivo, L.
How it was run: as §2

[5] = system: CHEAL (Chenopodium album); assay: Postemergence herbicidal evaluation; format: in vivo, L.
How it was run: as §2

[6] = system: CASOB (Cassia obtusifolia); assay: Postemergence herbicidal evaluation; format: in vivo, L.
How it was run: as §2

ORYSAT (Rice, Tebonnet) [7] = assay: Postemergence herbicidal evaluation; format: in vivo, Oryza sativa, (L.) Tebonnet
How it was run: as §2

[8] = system: ECHCG (Echinochloa crus-galli); assay: Preemergence herbicidal evaluation; format: in vivo, (L.) Beau; details: preemergence, rated 4-5 weeks after treatment
How it was run: (§3)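 Applied before emergence as an aqueous acetone spray over seeded soil. Read-out: 0–9 visual rating covering plant stand, vigor, size, chlorosis, malformation and overall appearance compared with control, taken 4–5 weeks after spraying.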

SETVI (Setaria viridis) = assay: Preemergence herbicidal evaluation; format: in vivo, (L.) Beau; details: preemergence, rated 4-5 weeks after treatment
How it was run: as §3

[9] = system: SAGPY (Sagittaria pygmaea); assay: Flooded paddy, postemergence weed control; format: in vivo, L.; details: postemergence weeds, rated 3-4 weeks after treatment
How it was run: as §1

GALAP (Galium aparine) [10] = assay: Postemergence herbicidal evaluation; format: in vivo
How it was run: as §2

[11] = system: TRZAWR (Wheat, Winter, cv Riband); assay: Preemergence herbicidal evaluation; format: in vivo, Triticum aestivum; details: preemergence, rated 4-5 weeks after treatment
How it was run: as §3

[12] = system: IPOHE (Ipomoea hederacea); assay: Postemergence herbicidal evaluation; format: in vivo, (L.) Jacq.
How it was run: as §2

[13] = system: CYPSE (Cyperus serotinus); assay: Flooded paddy, postemergence weed control; format: in vivo, Rottb.; details: postemergence weeds, rated 3-4 weeks after treatment
How it was run: as §1

[14] = system: GLXMAW (Soybean, Williams); assay: Postemergence herbicidal evaluation; format: in vivo, Glycine max, (L.) Merr. cv Williams
How it was run: as §2

GALAP (Galium aparine) [15] = assay: Preemergence herbicidal evaluation; format: in vivo; details: preemergence, rated 4-5 weeks after treatment
How it was run: as §3

CYPIR (Cyperus iria) = assay: Flooded paddy, postemergence weed control; format: in vivo; details: postemergence weeds, rated 3-4 weeks after treatment
How it was run: as §1

[16] = system: MOOVA (Monochoria vaginalis); assay: Flooded paddy, postemergence weed control; format: in vivo, Presl.; details: postemergence weeds, rated 3-4 weeks after treatment
How it was run: as §1

ORYSAT (Rice, Tebonnet) [17] = assay: Preemergence herbicidal evaluation; format: in vivo, Oryza sativa, (L.) Tebonnet; details: preemergence, rated 4-5 weeks after treatment

SMILES: COC(=O)COc1ccsc1-c1nsc2ccc(-n3c(=O)cc(C(F)(F)F)n(C)c3=O)cc12 [Compound 22, Methyl [(2-[5-[3,6-dihydro-3-methyl-2,6-dioxo-4-(trifluoromethyl)-1(2H)-pyrimidinyl]-1,2-benzisothiazol-3-yl]-3-thienyl]oxy]acetate]
- herbicide rating (0-9) ECHORC ([1]; 0.0320 kg/ha into flood water): 0.0
- herbicide rating (0-9) ECHORC ([1]; 0.0620 kg/ha into flood water): 0.0
- herbicide rating (0-9) ECHORC ([1]; 0.1250 kg/ha into flood water): 0.0
- herbicide rating (0-9) ORYSAT (rice tolerance) (ORYSAT (Rice, Tebonnet) [2]; 0.0320 kg/ha into flood water): 0.0
- herbicide rating (0-9) ORYSAT (rice tolerance) (ORYSAT (Rice, Tebonnet) [2]; 0.0620 kg/ha into flood water): 0.0
- herbicide rating (0-9) ORYSAT (rice tolerance) (ORYSAT (Rice, Tebonnet) [2]; 0.1250 kg/ha into flood water): 0.0
- Postemergence herbicidal rating, ABUTH ([3]; rate 0.0320 kg/ha): 5.0
- Postemergence herbicidal rating, ABUTH ([3]; rate 0.0620 kg/ha): 4.0
- Postemergence herbicidal rating, ABUTH ([3]; rate 0.1250 kg/ha): 6.0
- Postemergence herbicidal rating, ZEAMX (ZEAMX (Corn, Field); rate 0.0320 kg/ha): 4.5
- Postemergence herbicidal rating, ZEAMX (ZEAMX (Corn, Field); rate 0.0620 kg/ha): 6.0
- Postemergence herbicidal rating, ZEAMX (ZEAMX (Corn, Field); rate 0.1250 kg/ha): 7.0
- Postemergence herbicidal rating, AMBEL ([4]; rate 0.0320 kg/ha): 2.0
- Postemergence herbicidal rating, AMBEL ([4]; rate 0.0620 kg/ha): 4.0
- Postemergence herbicidal rating, AMBEL ([4]; rate 0.1250 kg/ha): 6.0
- Postemergence herbicidal rating, CHEAL ([5]; rate 0.0320 kg/ha): 1.0
- Postemergence herbicidal rating, CHEAL ([5]; rate 0.0620 kg/ha): 4.0
- Postemergence herbicidal rating, CHEAL ([5]; rate 0.1250 kg/ha): 4.0
- Postemergence herbicidal rating, CASOB ([6]; rate 0.0320 kg/ha): 0.0
- Postemergence herbicidal rating, CASOB ([6]; rate 0.0620 kg/ha): 0.0
- Postemergence herbicidal rating, CASOB ([6]; rate 0.1250 kg/ha): 1.0
- Postemergence herbicidal rating, ORYSAT (ORYSAT (Rice, Tebonnet) [7]; rate 0.0320 kg/ha): 3.0
- Postemergence herbicidal rating, ORYSAT (ORYSAT (Rice, Tebonnet) [7]; rate 0.0620 kg/ha): 3.5
- Postemergence herbicidal rating, ORYSAT (ORYSAT (Rice, Tebonnet) [7]; rate 0.1250 kg/ha): 4.5
- ECHCG preemergence herbicidal rating ([8]; Rate 0.0620 kg/ha): 0.0
- ECHCG preemergence herbicidal rating ([8]; Rate 0.1250 kg/ha): 0.0
- ECHCG preemergence herbicidal rating ([8]; Rate 0.2500 kg/ha): 1.0
- SETVI preemergence herbicidal rating (SETVI (Setaria viridis); Rate 0.0620 kg/ha): 0.0
- SETVI preemergence herbicidal rating (SETVI (Setaria viridis); Rate 0.1250 kg/ha): 1.0
- SETVI preemergence herbicidal rating (SETVI (Setaria viridis); Rate 0.2500 kg/ha): 3.0
- herbicide rating (0-9) SAGPY ([9]; 0.0320 kg/ha into flood water): 0.0
- herbicide rating (0-9) SAGPY ([9]; 0.0620 kg/ha into flood water): 0.0
- herbicide rating (0-9) SAGPY ([9]; 0.1250 kg/ha into flood water): 0.0
- Postemergence herbicidal rating, GALAP (GALAP (Galium aparine) [10]; rate 0.0320 kg/ha): 0.0
- Postemergence herbicidal rating, GALAP (GALAP (Galium aparine) [10]; rate 0.0620 kg/ha): 0.0
- Postemergence herbicidal rating, GALAP (GALAP (Galium aparine) [10]; rate 0.1250 kg/ha): 1.0
- TRZAWR preemergence herbicidal rating ([11]; Rate 0.0620 kg/ha): 0.0
- TRZAWR preemergence herbicidal rating ([11]; Rate 0.1250 kg/ha): 0.0
- TRZAWR preemergence herbicidal rating ([11]; Rate 0.2500 kg/ha): 0.0
- Postemergence herbicidal rating, IPOHE ([12]; rate 0.0320 kg/ha): 4.0
- Postemergence herbicidal rating, IPOHE ([12]; rate 0.0620 kg/ha): 4.0
- Postemergence herbicidal rating, IPOHE ([12]; rate 0.1250 kg/ha): 6.0
- herbicide rating (0-9) CYPSE ([13]; 0.0320 kg/ha into flood water): 0.0
- herbicide rating (0-9) CYPSE ([13]; 0.0620 kg/ha into flood water): 0.0
- herbicide rating (0-9) CYPSE ([13]; 0.1250 kg/ha into flood water): 0.0
- Postemergence herbicidal rating, GLXMAW ([14]; rate 0.0320 kg/ha): 5.5
- Postemergence herbicidal rating, GLXMAW ([14]; rate 0.0620 kg/ha): 5.5
- Postemergence herbicidal rating, GLXMAW ([14]; rate 0.1250 kg/ha): 6.5
- GALAP preemergence herbicidal rating (GALAP (Galium aparine) [15]; Rate 0.0620 kg/ha): 0.0
- GALAP preemergence herbicidal rating (GALAP (Galium aparine) [15]; Rate 0.1250 kg/ha): 0.0
- GALAP preemergence herbicidal rating (GALAP (Galium aparine) [15]; Rate 0.2500 kg/ha): 1.0
- herbicide rating (0-9) CYPIR (CYPIR (Cyperus iria); 0.0320 kg/ha into flood water): 0.0
- herbicide rating (0-9) CYPIR (CYPIR (Cyperus iria); 0.0620 kg/ha into flood water): 0.0
- herbicide rating (0-9) CYPIR (CYPIR (Cyperus iria); 0.1250 kg/ha into flood water): 0.0
- herbicide rating (0-9) MOOVA ([16]; 0.0320 kg/ha into flood water): 0.0
- herbicide rating (0-9) MOOVA ([16]; 0.0620 kg/ha into flood water): 0.0
- herbicide rating (0-9) MOOVA ([16]; 0.1250 kg/ha into flood water): 0.0
- ORYSAT preemergence herbicidal rating (ORYSAT (Rice, Tebonnet) [17]; Rate 0.0620 kg/ha): 0.0
- ORYSAT preemergence herbicidal rating (ORYSAT (Rice, Tebonnet) [17]; Rate 0.1250 kg/ha): 0.0
- ORYSAT preemergence herbicidal rating (ORYSAT (Rice, Tebonnet) [17]; Rate 0.2500 kg/ha): 0.0
